Data reported in publication PMC10630888, “Nuclear ERK1/2 signaling potentiation enhances neuroprotection and cognition via Importinα1/KPNA2” (EMBO Molecular Medicine, 2023).
Where “and” joins values, the source holds several entries; their conditions need not be identical. Equal entries are not always repeated.

System: p-ERK1/2 in DARPP-32+ neurons
Test: p-ERK1/2 in DARPP-32+ iPSC-derived HD MSNs
Format: cell-based, human
Conditions: for p-ERK1/2 in DARPP-32+ neurons (Fig 5 panel e): individual replicates
Description: The human induced pluripotent stem cell line CS09iHD109‐n1 (herein referred to as Q109N1) was originally generated from a human fibroblast line ND39258 (RRID:CVCL_ZC78) with an expanded HTT allele initially containing 109 pure CAG trinucleotides, and the isogenic control lines used were derived by CRISPR gene‐edit to reduce the CAG repeat length to 20 repeats (Mattis et al, [2015]). IPSCS were cultured on hESC‐qualified Matrigel (Corning) in E8‐Flex medium (Thermo Fisher) and passaged with RelesR (Stem Cell Technologies) according to the manufacturer's instructions. For neural differentiation iPSCS were grown to 70% confluency and then treated with 10 μM Y‐27632 (Tocris) for 1 h before harvesting by dissociation to a single cell suspension using accutase (Sigma). IPSCs were replated onto fresh Matrigel‐coated plates at a split ratio of 1:2, in E8‐Flex medium containing 10 μM Y‐27632. After overnight culture, IPSCs at 80–90% confluency were washed with PBS pH 7.4 (Gibco) and then switched to neural induction medium (Advanced DMEM/F12 (1:1) supplemented with 2 mM GlutamaxTM (Gibco), 2% Neurobrew without vitamin A (Miltenyi), 10 μM SB431542, 1 μM LDN 193189 (both Stem Cell Technologies), and 1.5 μM IWR1 (Tocris)). Medium was changed daily until day 8, when cells were passaged 1:2 by cell dissociation with Accutase for 5 min at 37°C and replated on Matrigel® coated plates in LIA medium containing (Advanced DMEM/F12 (1:1) supplemented with 2 mM GlutamaxTM, 2% Neurobrew without vitamin A, 0.2 μM LDN 193189, 1.5 μM IWR1, and 20 ng/ml Activin A (Peprotech)). At day 16, cells were plated for neuronal differentiation according to (Telezhkin et al, [2016]). […]
Images were acquired using a confocal microscope (Zeiss LSM710) under a 20× objective and analyzed with ImageJ software.

Sequence: GRKKRRQRRRPPQGGGGGEPRRTEGVGPGVPGEVEMVKGQPFDV [RB5, six D-amino acids, acetylated N-terminus]
- p-ERK1/2 in DARPP-32+ neurons (Fig 5 panel e) (CTR iPSC-derived MSNs): 32.3403 and 42.5 and 40 and 34.7652 and 35.2993
- p-ERK1/2 in DARPP-32+ neurons (HD and isogenic control iPSC-derived MSNs, 50 μM, 30 min): upregulated
- p-ERK1/2 in DARPP-32+ neurons (Fig 5 panel e) (HD iPSC-derived MSNs): 36.3889 and 24.1289 and 36.2319 and 31.1704 and 41.2043 and 24.6269
